This note sets out measurements from US20180064681A1, “THERAPEUTIC COMBINATIONS OF CURCUMINOIDS AND FLAVONOIDS” (Primus Pharmaceuticals, Inc., priority 2015, published 2018).

One assay concerns MMP-3 mRNA. The assay can be described thus: MMP-3 mRNA expression in LPS-stimulated human articular chondrocytes (real-time PCR). Format: cell-based. Conditions: LPS 2 μg/ml, 4 hours.
A further assay deals with MMP-1 mRNA. Put plainly: MMP-1 mRNA expression in LPS-stimulated human articular chondrocytes (real-time PCR). The format is cell-based. The note with it: LPS 2 μg/ml, 4 hours. (In general: In qPCR the cycle at which signal appears reflects the starting amount.)
The subject of another assay is 5-LOX mRNA. Put plainly: 5-LOX mRNA expression in LPS-stimulated human articular chondrocytes (real-time PCR). The format is cell-based. The note with it: LPS 2 μg/ml, 4 hours; curcumin 10 μg/ml.
Assay [1] has as its system IL-1β mRNA. Put plainly: Median effect / combination index analysis (Chou and Talalay) of reduction of IL-1β mRNA levels in chondrocytes. Format: cell-based. Conditions: Homo sapiens, Chondrocyte, read-out: IC50 (Dm) for reduction of IL-1β mRNA levels.
Procedure: We then plotted the dose-response curve (FIG. 21) as log (fa/fu) with respect to log (D) to generate the Median Effect Plot (FIG. 22).
The CI was calculated as:
The test system of another assay is COX-2 mRNA. The format is cell-based, human.
The subject of another assay is NF-κB p65 mRNA. The assay can be described thus: NF-κB (p65) mRNA expression in LPS-stimulated human articular chondrocytes (real-time PCR). The format is cell-based. The note with it: LPS 2 μg/ml, 4 hours.
Another assay concerns IL-13 mRNA. Put plainly: IL-13 mRNA expression in LPS-stimulated human articular chondrocytes (real-time PCR). The format is cell-based. The note with it: LPS 2 μg/ml, 4 hours; curcumin alone 5 or 10 μg/ml.
The subject of assay [2] is IL-1β mRNA. The assay can be described thus: IL-1β mRNA expression in LPS-stimulated human articular chondrocytes (real-time PCR). Format: cell-based. Conditions: LPS 2 μg/ml, 4 hours.
Procedure: (§1) Human articular chondrocytes were cultured in six well culture Petri dishes at a density of 2.5×10^5 cells/well, in a specific chondrocyte growth medium supplemented with 1% antibiotic—antimycotic mixture, at 37° C. in 5% CO2 humidified incubator. The medium was renewed every 2 days. […] Finally, the cells and medium underwent molecular evaluation 4 hours after the treatments.
(§2) Total RNA was isolated from human chondrocytes for reverse-PCR real time evaluation of IL-1beta, COX2, MMP1, MMP-3, MMP9, MMP13, NF-kB (p50), NF-kB (p65), IL-13 and 5-LOX mRNA (Real Time PCR system, mod 7500, Applied Biosystems, Carlsbad, Calif.) using Trizol Reagent Kit (Life Technologies, Monza, Italy). The first strand of cDNA was synthesized from 5.0 μg total RNA using a high capacity cDNA Archive kit (Applied Biosystems, Carlsbad, Calif.). β-actin mRNA was used as an endogenous control to allow the relative quantification. […] The amplified PCR products were quantified by measuring the calculated cycle thresholds (CT) of IL-1beta, COX2, MMP1, MMP-3, MMP9, MMP13, NF-kB (p50), NF-kB (p65), IL-13 and 5-LOX and β-Actin mRNA. The amounts of specific mRNA in samples were calculated using the 2^ΔΔCT method. The mean value of normal chondrocytes target levels became the calibrator and the results are expressed as the n-fold difference relative to normal controls (relative expression levels). […]

pIC50: −log10 of the molar value.

Procedure for 5-LOX mRNA: as §1, §2
Procedure for COX-2 mRNA: as §1, §2
Procedure for IL-13 mRNA: as §1, §2
Procedure for MMP-1 mRNA: as §1, §2
Procedure for MMP-3 mRNA: as §1, §2
Procedure for NF-κB p65 mRNA: as §1, §2

Turning to `COc1cc(/C=C/C(=O)CC(=O)/C=C/c2ccc(O)c(OC)c2)ccc1O` [curcumin], the “MMP-3 mRNA expression” value in the assay with MMP-3 mRNA (curcumin 5 μg/ml alone) is reported as “significantly reduced”; with MMP-3 mRNA (curcumin 10 μg/ml) it was “additional decrease in a concentration-dependent manner”. For the same compound, the entries for the “MMP-1 mRNA expression” value in the assay on MMP-1 mRNA (curcumin 5 μg/ml alone) and in the assay on MMP-1 mRNA (curcumin 10 μg/ml) were “significantly reduced” and “additional decrease in a concentration-dependent manner”, respectively. Also, the “5-LOX mRNA expression” value with 5-LOX mRNA is “blunted”. For the same compound, in the assay on IL-1β mRNA [1], the pIC50 – broadly, the IC50 on a negative log10 scale, so that one unit is a factor of ten – is 4.85. In the assay on COX-2 mRNA, the “COX-2 mRNA expression” value is recorded as “significantly reduced”. The results for the “NF-κB p65 mRNA expression” value with NF-κB p65 mRNA (curcumin 5 μg/ml) and in the assay on NF-κB p65 mRNA (curcumin 10 μg/ml alone) were “failed to result in any change” and “more pronounced decrease”, respectively. In addition, the “IL-13 mRNA expression” value with IL-13 mRNA is “significantly increased in a dose dependent manner”. Besides, the entries for the “IL-1β mRNA expression” value with IL-1β mRNA [2] (curcumin 5 μg/ml) and in the assay on IL-1β mRNA [2] (curcumin 10 μg/ml alone) were “significantly blunted” and “further decreased”, respectively.
